Assay results published in the kinase profiling compilation of Christmann-Franck et al. (2016).

What was measured:
Experiment in all cases: KINOMEscan competition binding
Conditions in all cases: compound 10.0 µM
[1] = tested on: ABL1 (human), P00519 [H396P]
[2] = tested on: ABL1 (human), P00519 [Y253F]
ACVRL1 (human) = ACVRL1 (human) (UniProt P37023)
AURKB (human) = AURKB (human) (UniProt Q96GD4)
BLK (human) = BLK (human) (UniProt P51451)
BMP2K (human) = BMP2K (human) (UniProt Q9NSY1)
BMPR1B (human) = BMPR1B (human) (UniProt O00238)
BMX (human) = BMX (human) (UniProt P51813)
[3] = tested on: BRAF (human), P15056 [V600E]
CDK11B (human) = CDK11B (human) (UniProt P21127)
CDK16 (human) = CDK16 (human) (UniProt Q00536)
CDK18 (human) = CDK18 (human) (UniProt Q07002)
CDKL2 (human) = CDKL2 (human) (UniProt Q92772)
CHEK1 (human) = CHEK1 (human) (UniProt O14757)
DMPK (human) = DMPK (human) (UniProt Q09013)
Sequence of DMPK (human) (Q09013 whole entry, looked up): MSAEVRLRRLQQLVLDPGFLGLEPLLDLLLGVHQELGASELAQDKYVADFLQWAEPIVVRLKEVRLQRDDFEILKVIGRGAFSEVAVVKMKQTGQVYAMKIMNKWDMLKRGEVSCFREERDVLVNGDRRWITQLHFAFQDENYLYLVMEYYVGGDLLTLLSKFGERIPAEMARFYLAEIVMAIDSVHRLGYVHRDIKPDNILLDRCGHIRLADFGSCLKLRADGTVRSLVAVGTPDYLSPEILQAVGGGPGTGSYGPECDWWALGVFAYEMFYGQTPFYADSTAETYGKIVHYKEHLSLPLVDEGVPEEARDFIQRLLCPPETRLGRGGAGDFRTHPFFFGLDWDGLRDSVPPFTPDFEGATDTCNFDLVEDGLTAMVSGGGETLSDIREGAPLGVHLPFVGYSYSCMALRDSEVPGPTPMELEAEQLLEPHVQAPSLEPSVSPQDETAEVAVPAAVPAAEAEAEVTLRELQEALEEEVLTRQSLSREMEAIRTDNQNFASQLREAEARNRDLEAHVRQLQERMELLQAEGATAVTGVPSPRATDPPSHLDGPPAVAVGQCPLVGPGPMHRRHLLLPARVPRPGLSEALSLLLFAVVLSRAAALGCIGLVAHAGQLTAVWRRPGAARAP

EPHA2 (human) = EPHA2 (human) (UniProt P29317)
EPHA5 (human) = EPHA5 (human) (UniProt P54756)
Sequence of EPHA5 (human) (P54756 whole entry, looked up): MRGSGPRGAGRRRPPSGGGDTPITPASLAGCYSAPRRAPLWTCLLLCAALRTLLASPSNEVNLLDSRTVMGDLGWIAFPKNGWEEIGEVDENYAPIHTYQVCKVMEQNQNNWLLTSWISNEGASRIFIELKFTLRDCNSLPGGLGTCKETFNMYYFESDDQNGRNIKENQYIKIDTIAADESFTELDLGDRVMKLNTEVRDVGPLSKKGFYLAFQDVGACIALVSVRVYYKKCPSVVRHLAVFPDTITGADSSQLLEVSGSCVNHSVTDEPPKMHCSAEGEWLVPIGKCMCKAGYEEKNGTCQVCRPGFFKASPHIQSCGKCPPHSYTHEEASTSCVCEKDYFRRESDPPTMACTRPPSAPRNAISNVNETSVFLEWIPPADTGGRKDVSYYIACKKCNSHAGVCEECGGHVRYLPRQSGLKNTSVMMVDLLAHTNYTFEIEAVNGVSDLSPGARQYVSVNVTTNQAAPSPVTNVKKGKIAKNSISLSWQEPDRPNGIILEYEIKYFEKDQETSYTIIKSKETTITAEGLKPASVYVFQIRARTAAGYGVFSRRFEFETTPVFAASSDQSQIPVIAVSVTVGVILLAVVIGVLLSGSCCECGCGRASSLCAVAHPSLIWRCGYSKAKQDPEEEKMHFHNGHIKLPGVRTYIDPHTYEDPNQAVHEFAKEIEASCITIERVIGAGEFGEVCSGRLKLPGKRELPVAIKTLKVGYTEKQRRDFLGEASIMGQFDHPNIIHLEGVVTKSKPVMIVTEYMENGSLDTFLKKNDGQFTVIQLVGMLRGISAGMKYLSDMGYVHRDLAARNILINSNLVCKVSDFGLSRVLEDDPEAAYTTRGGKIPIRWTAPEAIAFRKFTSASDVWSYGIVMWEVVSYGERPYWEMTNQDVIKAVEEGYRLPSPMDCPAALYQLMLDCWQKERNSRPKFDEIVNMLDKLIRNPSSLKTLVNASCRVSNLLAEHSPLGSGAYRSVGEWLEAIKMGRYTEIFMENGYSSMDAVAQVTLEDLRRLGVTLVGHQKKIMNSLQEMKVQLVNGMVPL

EPHA6 (human) = EPHA6 (human) (UniProt Q9UF33)
EPHB3 (human) = EPHB3 (human) (UniProt P54753)
FGFR1 (human) = FGFR1 (human) (UniProt P11362)
FLT1 (human) = FLT1 (human) (UniProt P17948)
LYN (human) = LYN (human) (UniProt P07948)
MKNK1 (human) = MKNK1 (human) (UniProt Q9BUB5)
MST4 (human) = MST4 (human) (UniProt Q9P289)
NEK7 (human) = NEK7 (human) (UniProt Q8TDX7)
OXSR1 (human) = OXSR1 (human) (UniProt O95747)
PDPK1 (human) = PDPK1 (human) (UniProt O15530)
Sequence of PDPK1 (human) (O15530 whole entry, looked up): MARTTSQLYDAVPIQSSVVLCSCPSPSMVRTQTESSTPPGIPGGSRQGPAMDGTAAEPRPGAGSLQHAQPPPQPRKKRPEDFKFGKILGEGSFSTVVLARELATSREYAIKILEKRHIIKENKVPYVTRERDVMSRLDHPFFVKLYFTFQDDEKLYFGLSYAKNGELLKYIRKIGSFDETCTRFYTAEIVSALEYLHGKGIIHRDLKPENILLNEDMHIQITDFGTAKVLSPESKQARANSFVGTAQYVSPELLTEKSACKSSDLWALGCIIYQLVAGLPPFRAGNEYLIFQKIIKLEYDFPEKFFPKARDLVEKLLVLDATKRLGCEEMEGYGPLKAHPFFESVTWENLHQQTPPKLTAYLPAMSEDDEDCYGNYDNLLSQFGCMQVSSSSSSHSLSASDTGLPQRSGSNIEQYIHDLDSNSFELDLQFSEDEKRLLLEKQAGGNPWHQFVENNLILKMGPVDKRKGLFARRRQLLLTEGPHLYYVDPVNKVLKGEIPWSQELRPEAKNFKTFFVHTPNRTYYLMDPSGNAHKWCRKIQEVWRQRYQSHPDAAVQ

PHKG1 (human) = PHKG1 (human) (UniProt Q16816)
PHKG2 (human) = PHKG2 (human) (UniProt P15735)
[4] = tested on: PIK3CA (human), P42336 [E545K]
Sequence of PIK3CA (human), P42336 [E545K] (P42336 whole entry E545K, looked up): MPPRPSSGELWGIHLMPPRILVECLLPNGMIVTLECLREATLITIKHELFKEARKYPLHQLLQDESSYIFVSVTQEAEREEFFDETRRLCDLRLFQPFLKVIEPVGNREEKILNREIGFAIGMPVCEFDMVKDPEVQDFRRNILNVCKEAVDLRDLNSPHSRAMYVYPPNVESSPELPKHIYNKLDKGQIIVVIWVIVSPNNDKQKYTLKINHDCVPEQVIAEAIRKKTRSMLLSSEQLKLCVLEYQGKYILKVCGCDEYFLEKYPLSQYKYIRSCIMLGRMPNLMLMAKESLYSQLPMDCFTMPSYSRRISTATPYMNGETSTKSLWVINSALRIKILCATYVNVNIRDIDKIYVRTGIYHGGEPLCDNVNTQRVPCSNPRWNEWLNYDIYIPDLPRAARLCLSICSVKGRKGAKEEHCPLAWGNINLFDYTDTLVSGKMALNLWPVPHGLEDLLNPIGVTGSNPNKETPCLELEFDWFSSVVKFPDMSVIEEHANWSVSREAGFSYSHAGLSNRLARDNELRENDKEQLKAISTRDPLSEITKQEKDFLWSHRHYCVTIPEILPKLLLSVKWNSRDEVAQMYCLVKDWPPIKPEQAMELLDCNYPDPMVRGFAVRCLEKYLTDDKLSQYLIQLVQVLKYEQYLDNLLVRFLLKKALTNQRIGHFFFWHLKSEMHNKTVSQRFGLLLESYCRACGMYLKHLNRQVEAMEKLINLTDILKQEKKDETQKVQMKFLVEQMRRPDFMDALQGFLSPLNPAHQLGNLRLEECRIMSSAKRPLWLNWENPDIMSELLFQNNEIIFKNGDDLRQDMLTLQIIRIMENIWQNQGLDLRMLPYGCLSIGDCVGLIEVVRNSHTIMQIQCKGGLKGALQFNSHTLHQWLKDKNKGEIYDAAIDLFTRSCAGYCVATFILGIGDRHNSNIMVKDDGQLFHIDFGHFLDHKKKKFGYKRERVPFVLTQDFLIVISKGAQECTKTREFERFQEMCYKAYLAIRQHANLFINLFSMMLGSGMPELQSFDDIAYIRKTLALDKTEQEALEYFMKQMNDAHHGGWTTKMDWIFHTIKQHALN

[5] = tested on: PIK3CA (human), P42336 [H1047Y]
Sequence of PIK3CA (human), P42336 [H1047Y] (P42336 whole entry H1047Y, looked up): as the sequence (P42336 whole entry E545K, looked up) above, with K545E, H1047Y counted along it

PLK2 (human) = PLK2 (human) (UniProt Q9NYY3)
PRKD3 (human) = PRKD3 (human) (UniProt O94806)
PRKG2 (human) = PRKG2 (human) (UniProt Q13237)
RET (human) = RET (human) (UniProt P07949)
RIOK2 (human) = RIOK2 (human) (UniProt Q9BVS4)
RIOK3 (human) = RIOK3 (human) (UniProt O14730)
Sequence of RIOK3 (human) (O14730 whole entry, looked up): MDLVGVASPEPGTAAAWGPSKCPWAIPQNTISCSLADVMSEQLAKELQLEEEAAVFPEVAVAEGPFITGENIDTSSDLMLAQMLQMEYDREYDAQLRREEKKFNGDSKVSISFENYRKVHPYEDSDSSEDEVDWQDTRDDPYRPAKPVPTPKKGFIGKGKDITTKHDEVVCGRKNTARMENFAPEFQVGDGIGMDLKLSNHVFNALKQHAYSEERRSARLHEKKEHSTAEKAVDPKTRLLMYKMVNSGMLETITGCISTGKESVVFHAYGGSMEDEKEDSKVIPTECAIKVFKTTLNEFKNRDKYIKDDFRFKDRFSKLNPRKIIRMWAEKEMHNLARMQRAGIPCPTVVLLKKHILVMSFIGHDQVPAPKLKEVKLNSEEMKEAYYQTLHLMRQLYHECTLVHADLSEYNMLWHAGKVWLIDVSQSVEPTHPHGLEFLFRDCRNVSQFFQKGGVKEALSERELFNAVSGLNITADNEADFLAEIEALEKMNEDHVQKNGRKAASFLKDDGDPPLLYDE

SLK (human) = SLK (human) (UniProt Q9H2G2)
SRMS (human) = SRMS (human) (UniProt Q9H3Y6)
Sequence of SRMS (human) (Q9H3Y6 whole entry, looked up): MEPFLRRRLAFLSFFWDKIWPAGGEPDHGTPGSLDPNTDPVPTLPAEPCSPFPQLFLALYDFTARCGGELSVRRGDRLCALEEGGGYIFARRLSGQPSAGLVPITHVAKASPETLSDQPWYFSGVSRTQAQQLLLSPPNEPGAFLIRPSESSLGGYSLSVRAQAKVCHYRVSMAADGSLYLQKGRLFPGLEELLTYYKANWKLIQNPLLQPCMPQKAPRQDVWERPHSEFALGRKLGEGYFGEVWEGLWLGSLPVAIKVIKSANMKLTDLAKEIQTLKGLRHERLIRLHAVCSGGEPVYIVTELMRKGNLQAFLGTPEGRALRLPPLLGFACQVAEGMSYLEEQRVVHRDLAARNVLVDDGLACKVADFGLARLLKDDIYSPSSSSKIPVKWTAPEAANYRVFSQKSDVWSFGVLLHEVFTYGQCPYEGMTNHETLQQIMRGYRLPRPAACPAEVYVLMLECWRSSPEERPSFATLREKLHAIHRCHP

STK16 (human) = STK16 (human) (UniProt O75716)
STK36 (human) = STK36 (human) (UniProt Q9NRP7)
TXK (human) = TXK (human) (UniProt P42681)

Sequence of ACVRL1 (human) (P37023 whole entry, looked up): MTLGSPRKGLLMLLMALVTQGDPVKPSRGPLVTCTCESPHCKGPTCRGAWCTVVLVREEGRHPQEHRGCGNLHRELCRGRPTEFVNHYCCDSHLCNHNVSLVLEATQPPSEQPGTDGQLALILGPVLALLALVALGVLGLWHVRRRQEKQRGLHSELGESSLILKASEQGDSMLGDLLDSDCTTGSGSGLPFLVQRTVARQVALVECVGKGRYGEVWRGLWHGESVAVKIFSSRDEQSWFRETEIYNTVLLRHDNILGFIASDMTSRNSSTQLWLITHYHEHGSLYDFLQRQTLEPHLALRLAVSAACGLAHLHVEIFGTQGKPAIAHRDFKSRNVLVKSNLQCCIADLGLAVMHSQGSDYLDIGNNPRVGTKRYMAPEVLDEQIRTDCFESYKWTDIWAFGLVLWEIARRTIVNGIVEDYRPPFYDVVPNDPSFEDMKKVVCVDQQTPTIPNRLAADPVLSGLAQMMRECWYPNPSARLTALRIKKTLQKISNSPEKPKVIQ

kinase still bound, per cent of control [1]: 100% | kinase still bound, per cent of control [2]: 100% | kinase still bound, per cent of control (ACVRL1 (human)): 100% | kinase still bound, per cent of control (AURKB (human)): 94% | kinase still bound, per cent of control (BLK (human)): 100% | kinase still bound, per cent of control (BMP2K (human)): 99% | kinase still bound, per cent of control (BMPR1B (human)): 92% | kinase still bound, per cent of control (BMX (human)): 100% | kinase still bound, per cent of control [3]: 49% | kinase still bound, per cent of control (CDK11B (human)): 100% | kinase still bound, per cent of control (CDK16 (human)): 39% | kinase still bound, per cent of control (CDK18 (human)): 100% | kinase still bound, per cent of control (CDKL2 (human)): 3.8% | kinase still bound, per cent of control (CHEK1 (human)): 100% | kinase still bound, per cent of control (DMPK (human)): 92% | kinase still bound, per cent of control (EPHA2 (human)): 96% | kinase still bound, per cent of control (EPHA5 (human)): 100% | kinase still bound, per cent of control (EPHA6 (human)): 100% | kinase still bound, per cent of control (EPHB3 (human)): 100% | kinase still bound, per cent of control (FGFR1 (human)): 100% | kinase still bound, per cent of control (FLT1 (human)): 79% | kinase still bound, per cent of control (LYN (human)): 100% | kinase still bound, per cent of control (MKNK1 (human)): 100% | kinase still bound, per cent of control (MST4 (human)): 82% | kinase still bound, per cent of control (NEK7 (human)): 98% | kinase still bound, per cent of control (OXSR1 (human)): 70% | kinase still bound, per cent of control (PDPK1 (human)): 99% | kinase still bound, per cent of control (PHKG1 (human)): 100% | kinase still bound, per cent of control (PHKG2 (human)): 100% | kinase still bound, per cent of control [4]: 100% | kinase still bound, per cent of control [5]: 69% | kinase still bound, per cent of control (PLK2 (human)): 79% | kinase still bound, per cent of control (PRKD3 (human)): 88% | kinase still bound, per cent of control (PRKG2 (human)): 100% | kinase still bound, per cent of control (RET (human)): 100% | kinase still bound, per cent of control (RIOK2 (human)): 22% | kinase still bound, per cent of control (RIOK3 (human)): 100% | kinase still bound, per cent of control (SLK (human)): 63% | kinase still bound, per cent of control (SRMS (human)): 95% | kinase still bound, per cent of control (STK16 (human)): 91% | kinase still bound, per cent of control (STK36 (human)): 42% | kinase still bound, per cent of control (TXK (human)): 100%
Compound: Cc1cnc(-c2cnc(NCCNc3ccc(C#N)cn3)nc2-c2ccc(Cl)cc2Cl)[nH]1
